≈ marks a conversion by molar mass, not a printed value.
Test system: Mycobacterium tuberculosis
Experiment: Antimycobacterial activity against Mycobacterium tuberculosis
Assay type: functional
Conditions: for MIC: Mycobacterium tuberculosis

Compound: CC(C)CN1CCN(c2ccc3c(=O)c(C(=O)O)cn(-c4c(F)cccc4F)c3c2)CC1
- log(1/C): 2.06
- MIC: 8.71 µM (≈ 3.84 µg/mL)

Compound: CCN1CCN(c2ccc3c(=O)c(C(=O)O)cn(C4CC4)c3c2)CC1
- log(1/C): 3.442
- MIC: 0.362 µM (≈ 0.124 µg/mL)

Compound: CN(C)CC1CCN(c2ccc3c(=O)c(C(=O)O)cn(C4CC4)c3c2)C1 (configuration not stated)
- log(1/C): 2.873
- MIC: 1.34 µM (≈ 0.476 µg/mL)

Compound: CC(C)N1CCN(c2ccc3c(=O)c(C(=O)O)cn(-c4c(F)cccc4F)c3c2)CC1
- log(1/C): 2.649
- MIC: 2.25 µM (≈ 0.96 µg/mL)

Compound: CCN1CCN(c2ccc3c(=O)c(C(=O)O)cn(C4CCC4)c3c2)CC1
- log(1/C): 2.271
- MIC: 5.36 µM (≈ 1.9 µg/mL)

Compound: CCCn1cc(C(=O)O)c(=O)c2ccc(N3CCNCC3)cc21
- log(1/C): 2.203
- MIC: 6.26 µM (≈ 1.98 µg/mL)

Compound: CCNCC1CCN(c2ccc3c(=O)c(C(=O)O)cn(-c4c(F)cccc4F)c3c2)C1 (configuration not stated)
- log(1/C): 2.95
- MIC: 1.12 µM (≈ 0.48 µg/mL)

Compound: O=C(O)c1cn(C2CC2)c2cc(N3CCNCC3)ccc2c1=O
- log(1/C): 3.122
- MIC: 0.754 µM (≈ 0.236 µg/mL)

Compound: CC1CN(c2ccc3c(=O)c(C(=O)O)cn(C(C)(C)C)c3c2)CC(C)N1 (configuration not stated)
- log(1/C): 3.796
- MIC: 0.16 µM (≈ 0.0572 µg/mL)

Compound: CN1CCN(c2ccc3c(=O)c(C(=O)O)cn(-c4c(F)cccc4F)c3c2)CC1
- log(1/C): 2.922
- MIC: 1.2 µM (≈ 0.478 µg/mL)

Compound: CCCCN1CCN(c2ccc3c(=O)c(C(=O)O)cn(-c4c(F)cccc4F)c3c2)CC1
- log(1/C): 2.361
- MIC: 4.35 µM (≈ 1.92 µg/mL)

Compound: CCN1CCN(c2ccc3c(=O)c(C(=O)O)cn(C(C)C)c3c2)CC1
- log(1/C): 1.956
- MIC: 11.1 µM (≈ 3.8 µg/mL)

Compound: CC(C)(C)n1cc(C(=O)O)c(=O)c2ccc(N3CCNCC3)cc21
- log(1/C): 3.427
- MIC: 0.374 µM (≈ 0.123 µg/mL)

Compound: CCC1CN(c2ccc3c(=O)c(C(=O)O)cn(C4CC4)c3c2)CCN1 (configuration not stated)
- log(1/C): 3.158
- MIC: 0.696 µM (≈ 0.238 µg/mL)

Compound: CCCn1cc(C(=O)O)c(=O)c2ccc(N3CC(C)NC(C)C3)cc21 (configuration not stated)
- log(1/C): 2.541
- MIC: 2.88 µM (≈ 0.989 µg/mL)

Compound: CNCC1CCN(c2ccc3c(=O)c(C(=O)O)cn(C4CCC4)c3c2)C1 (configuration not stated)
- log(1/C): 1.97
- MIC: 10.7 µM (≈ 3.81 µg/mL)

Compound: NC1CCN(c2ccc3c(=O)c(C(=O)O)cn(-c4c(F)cccc4F)c3c2)C1 (configuration not stated)
- log(1/C): 3.492
- MIC: 0.322 µM (≈ 0.124 µg/mL)

Compound: CC(C)NCC1CCN(c2ccc3c(=O)c(C(=O)O)cn(C4CC4)c3c2)C1 (configuration not stated)
- log(1/C): 2.889
- MIC: 1.29 µM (≈ 0.477 µg/mL)

Compound: CCN1CCN(c2ccc3c(=O)c(C(=O)O)cn(-c4c(F)cccc4F)c3c2)CC1
- log(1/C): 2.635
- MIC: 2.32 µM (≈ 0.958 µg/mL)

Compound: CN1CCN(c2ccc3c(=O)c(C(=O)O)cn(C4CC4)c3c2)CC1
- log(1/C): 3.14
- MIC: 0.724 µM (≈ 0.237 µg/mL)

Compound: CCN1CCN(c2ccc3c(=O)c(C(=O)O)cn(C(C)(C)C)c3c2)CC1
- log(1/C): 3.461
- MIC: 0.346 µM (≈ 0.124 µg/mL)

Compound: CNCC1CCN(c2ccc3c(=O)c(C(=O)O)cn(C4CC4)c3c2)C1 (configuration not stated)
- log(1/C): 2.857
- MIC: 1.39 µM (≈ 0.475 µg/mL)

Compound: CCCn1cc(C(=O)O)c(=O)c2ccc(N3CCC(N)C3)cc21 (configuration not stated)
- log(1/C): 1.902
- MIC: 12.5 µM (≈ 3.95 µg/mL)

Compound: CC1CN(c2ccc3c(=O)c(C(=O)O)cn(-c4c(F)cccc4F)c3c2)CC(C)N1 (configuration not stated)
- log(1/C): 2.936
- MIC: 1.16 µM (≈ 0.479 µg/mL)

Compound: CC1CN(c2ccc3c(=O)c(C(=O)O)cn(C4CCC4)c3c2)CC(C)N1 (configuration not stated)
- log(1/C): 2.873
- MIC: 1.34 µM (≈ 0.476 µg/mL)

Compound: CCC1CN(c2ccc3c(=O)c(C(=O)O)cn(-c4c(F)cccc4F)c3c2)CCN1 (configuration not stated)
- log(1/C): 2.635
- MIC: 2.32 µM (≈ 0.958 µg/mL)

Compound: CC1CN(c2ccc3c(=O)c(C(=O)O)cn(C(C)C)c3c2)CCN1 (configuration not stated)
- log(1/C): 2.24
- MIC: 5.76 µM (≈ 1.9 µg/mL)

Compound: CC1CN(c2ccc3c(=O)c(C(=O)O)cn(-c4c(F)cccc4F)c3c2)CCN1 (configuration not stated)
- log(1/C): 2.922
- MIC: 1.2 µM (≈ 0.478 µg/mL)

Compound: CNCC1CCN(c2ccc3c(=O)c(C(=O)O)cn(C(C)C)c3c2)C1 (configuration not stated)
- log(1/C): 1.655
- MIC: 22.1 µM (≈ 7.6 µg/mL)

Compound: CCNCC1CCN(c2ccc3c(=O)c(C(=O)O)cn(C4CC4)c3c2)C1 (configuration not stated)
- log(1/C): 2.873
- MIC: 1.34 µM (≈ 0.476 µg/mL)

Compound: CC(C)n1cc(C(=O)O)c(=O)c2ccc(N3CCC(N)C3)cc21 (configuration not stated)
- log(1/C): 2.222
- MIC: 6 µM (≈ 1.89 µg/mL)

Compound: CCCn1cc(C(=O)O)c(=O)c2ccc(N3CCC(CNC)C3)cc21 (configuration not stated)
- log(1/C): 1.638
- MIC: 23 µM (≈ 7.91 µg/mL)

Compound: CC(C)CN1CCN(c2ccc3c(=O)c(C(=O)O)cn(C4CC4)c3c2)CC1
- log(1/C): 3.19
- MIC: 0.645 µM (≈ 0.238 µg/mL)

Compound: CNCC1CCN(c2ccc3c(=O)c(C(=O)O)cn(-c4c(F)cccc4F)c3c2)C1 (configuration not stated)
- log(1/C): 3.237
- MIC: 0.579 µM (≈ 0.239 µg/mL)

Compound: CC(C)N1CCN(c2ccc3c(=O)c(C(=O)O)cn(C4CC4)c3c2)CC1
- log(1/C): 3.174
- MIC: 0.669 µM (≈ 0.238 µg/mL)

Compound: CC(C)(C)n1cc(C(=O)O)c(=O)c2ccc(N3CCC(N)C3)cc21 (configuration not stated)
- log(1/C): 3.427
- MIC: 0.374 µM (≈ 0.123 µg/mL)

Compound: CC1CN(c2ccc3c(=O)c(C(=O)O)cn(C4CC4)c3c2)CCN1 (configuration not stated)
- log(1/C): 3.14
- MIC: 0.724 µM (≈ 0.237 µg/mL)

Compound: O=C(O)c1cn(-c2c(F)cccc2F)c2cc(N3CCNCC3)ccc2c1=O
- log(1/C): 2.907
- MIC: 1.24 µM (≈ 0.478 µg/mL)

Compound: CC1CN(c2ccc3c(=O)c(C(=O)O)cn(C(C)C)c3c2)CC(C)N1 (configuration not stated)
- log(1/C): 2.257
- MIC: 5.53 µM (≈ 1.9 µg/mL)

Compound: O=C(O)c1cn(C2CCC2)c2cc(N3CCNCC3)ccc2c1=O
- log(1/C): 2.237
- MIC: 5.79 µM (≈ 1.9 µg/mL)

Compound: CCCn1cc(C(=O)O)c(=O)c2ccc(N3CCNC(C)C3)cc21 (configuration not stated)
- log(1/C): 2.222
- MIC: 6 µM (≈ 1.98 µg/mL)

Compound: CC1(CN)CCN(c2ccc3c(=O)c(C(=O)O)cn(C4CC4)c3c2)C1 (configuration not stated)
- log(1/C): 3.777
- MIC: 0.167 µM (≈ 0.057 µg/mL)

Compound: NC1CCN(c2ccc3c(=O)c(C(=O)O)cn(C4CCC4)c3c2)C1 (configuration not stated)
- log(1/C): 2.556
- MIC: 2.78 µM (≈ 0.911 µg/mL)

Compound: CCCn1cc(C(=O)O)c(=O)c2ccc(N3CCN(CC)CC3)cc21
- log(1/C): 2.842
- MIC: 1.44 µM (≈ 0.494 µg/mL)

Compound: NC1CCN(c2ccc3c(=O)c(C(=O)O)cn(C4CC4)c3c2)C1 (configuration not stated)
- log(1/C): 3.122
- MIC: 0.754 µM (≈ 0.236 µg/mL)

Compound: CC1CN(c2ccc3c(=O)c(C(=O)O)cn(C(C)(C)C)c3c2)CCN1 (configuration not stated)
- log(1/C): 3.78
- MIC: 0.166 µM (≈ 0.057 µg/mL)

Compound: CC(C)n1cc(C(=O)O)c(=O)c2ccc(N3CCNCC3)cc21
- log(1/C): 1.921
- MIC: 12 µM (≈ 3.78 µg/mL)

Compound: CC1CN(c2ccc3c(=O)c(C(=O)O)cn(C4CCC4)c3c2)CCN1 (configuration not stated)
- log(1/C): 2.556
- MIC: 2.78 µM (≈ 0.95 µg/mL)

Compound: CNCC1CCN(c2ccc3c(=O)c(C(=O)O)cn(C(C)(C)C)c3c2)C1 (configuration not stated)
- log(1/C): 3.177
- MIC: 0.666 µM (≈ 0.238 µg/mL)

Compound: CC1CN(c2ccc3c(=O)c(C(=O)O)cn(C4CC4)c3c2)CC(C)N1 (configuration not stated)
- log(1/C): 3.442
- MIC: 0.362 µM (≈ 0.124 µg/mL)

Compound: CCCCN1CCN(c2ccc3c(=O)c(C(=O)O)cn(C4CC4)c3c2)CC1
- log(1/C): 2.889
- MIC: 1.29 µM (≈ 0.477 µg/mL)
